We go through ten compounds from patent publication US12662494B2, “Optically active bridged piperidine derivative” (Sumitomo Pharma Co., Ltd., priority 2018, dated 2026).

The subject of one series is MOLM-13 cells. Kind of series: Test 2: inhibition of cell proliferation, MOLM-13. Conditions: 7 days, PrestoBlue cell viability. The series is classed as cell-based. As to the method: (§1) Test 2: Test for Evaluating the Inhibition of Cell Proliferation
(§2) RS4; 11 cells were obtained from American Type Culture Collection (ATCC). The cells were cultured at 37° C. in the presence of 5% CO2 in RPMI 1640 medium containing 10% fetal bovine serum and 1% penicillin/streptomycin. MOLM-13 cells were separately obtained from DSMZ (Deutsche Sammlung von Mikroorganismen und Zellkulturen GmbH). The cells were cultured at 37° C. in the presence of 5% CO2 in RPMI 1640 medium containing […] and 1% penicillin/streptomycin.
(§3) The cells were plated to a 96-well plate in 2000 cells/well, each test compound was added thereto to adjust the final concentration of DMSO to 0.1% of DMSO, and the cells were cultured for 7 days. After the cultivation, the cell viability was calculated with PrestoBlue™ Cell Viability Reagent (Invitrogen, A13261). The IC50 value was calculated from a survival curve, that corresponds to the concentration of the test compound at which the cell proliferation inhibition rate is 50%.

For a further series, the system named is RS4; 11 cells. Kind of series: Test 2: inhibition of cell proliferation, RS4;11. The series is classed as cell-based. Particulars: for IC50: RS4;11 cells, 7 days, PrestoBlue cell viability; for cell proliferation inhibition activity, good (in words) / cell proliferation inhibitory activity, potent (in words): summary of Test 2 table, RS4;11 and MOLM-13. The method, then:
as §1, §2, §3

A short description of series [1]: Test 4: pharmacokinetic study, oral, mouse. Particulars: for AUC(0-t): male, NOD.CB17-Prkdcscid/J, plasma, po, 100 mg/kg; for compound-exposure in plasma (in words): summary of Test 4 table, oral 100 mg/kg.
Protocol: Test 4: Pharmacokinetic Study
The test compound suspended in 0.5% methylcellulose was orally administered to 7-week-old male NOD. CB17-Prkdcscid/J mouse in a dose of 100 mg/kg. The blood sample was taken from jugular vein without anesthesia over time for 24 hours. The blood sample was centrifuged to obtain plasma. The plasma was pre-treated by methanol extraction method, and then analyzed with an LC-MS/MS to determine the concentration of the test compound. Based on the data from 0 hour after the administration until the time (t) when there was the final detection in the plasma, AUC was calculated by trapezoidal method.

`C=C1C[C@@H]2CC[C@H]1[C@@H](C(=O)N1CC3(C1)CN(c1c(C(F)(F)F)cnc4sc(CC(F)(F)F)cc14)C3)N2` [Example 17, [(1S,3S,4R)-5-(^2H2)methylidene-2-azabicyclo[2.2.2]octan-3-yl]{6-[2-(2,2,2-trifluoroethyl)-5-(trifluoromethyl)thieno[2,3-b]pyridin-4-yl]-2,6-diazaspiro[3.3]heptan-2-yl}methanone]: the IC50 with MOLM-13 cells and with RS4; 11 cells was below 30 nM throughout.
On to `[2H]C([2H])=C1C[C@@H]2CC[C@H]1[C@@H](C(=O)N1CC3(C1)CN(c1c(C(F)(F)F)cnc4sc(CC(F)(F)F)cc14)C3)N2` [Example 17, [(1S,3S,4R)-5-(^2H2)methylidene-2-azabicyclo[2.2.2]octan-3-yl]{6-[2-(2,2,2-trifluoroethyl)-5-(trifluoromethyl)thieno[2,3-b]pyridin-4-yl]-2,6-diazaspiro[3.3]heptan-2-yl}methanone], for which, in the series on RS4; 11 cells, the “cell proliferation inhibition activity, good (in words)” value (“cell proliferation inhibition activity” for short) is listed as “good cell proliferation inhibition activity” and the “cell proliferation inhibitory activity, potent (in words)” value (shortened to “cell proliferation inhibitory activity”) was “potent cell proliferation inhibitory activity”.
As to `C=C1C[C@@H]2CC[C@H]1[C@@H](C(=O)N1CCC3(CC1)CN(c1c(C(F)(F)F)cnc4sc(CC(F)(F)F)cc14)C3)N2` [Example 21, [(1S,3S,4R)-5-(^2H2)methylidene-2-azabicyclo[2.2.2]octan-3-yl]{2-[2-(2,2,2-trifluoroethyl)-5-(trifluoromethyl)thieno[2,3-b]pyridin-4-yl]-2,7-diazaspiro[3.5]nonan-7-yl}methanone], the IC50 in the series on MOLM-13 cells and with RS4; 11 cells was below 30 nM each time.
As to `O=C([C@H]1N[C@H]2CC[C@@H]1C[C@@H]2CC1CC1)N1CCC2(CC1)CN(c1c(C(F)(F)F)cnc3sc(CC(F)(F)F)cc13)C2` [Example 22, [(1S,3S,4R,6S)-6-(cyclopropylmethyl)-2-azabicyclo[2.2.2]octan-3-yl]{2-[2-(2,2,2-trifluoroethyl)-5-(trifluoromethyl)thieno[2,3-b]pyridin-4-yl]-2,7-diazaspiro[3.5]nonan-7-yl}methanone], 30 nM corresponded to half-maximal inhibition in the series on MOLM-13 cells (Homo sapiens, 168 h) (IC50). Moreover, the IC50 – broadly, the concentration that gives 50% inhibition – with RS4; 11 cells (Homo sapiens, 168 h) is below 30 nM. In addition, in the series on RS4; 11 cells, the “cell proliferation inhibition activity” value was “good cell proliferation inhibition activity” and the “cell proliferation inhibitory activity” value is “potent cell proliferation inhibitory activity”.
For the compound `C=C1C[C@@H]2C[C@H]1[C@@H](C(=O)N1CCC3(CC1)CN(c1c(C(F)(F)F)cnc4sc(CC(F)(F)F)cc14)C3)N2` [Example 23, [(1S,3S,4R)-5-methylidene-2-azabicyclo[2.2.1]heptan-3-yl]{2-[2-(2,2,2-trifluoroethyl)-5-(trifluoromethyl)thieno[2,3-b]pyridin-4-yl]-2,7-diazaspiro[3.5]nonan-7-yl}methanone], the IC50 came out at 110 nM in the series with MOLM-13 cells (Homo sapiens, 168 h) and 100 nM with RS4; 11 cells (Homo sapiens, 168 h).
Regarding `C=C1C[C@@H]2CC[C@H]1[C@@H](C(=O)N1CCC3(CC1)CN(c1c(C#N)cnc4sc(CC(F)(F)F)cc14)C3)N2` [Example 24, 4-{7-[(1S,3S,4R)-5-(^2H2)methylidene-2-azabicyclo[2.2.2]octane-3-carbonyl]-2,7-diazaspiro[3.5]nonan-2-yl}-2-(2,2,2-trifluoroethyl)thieno[2,3-b]pyridine-5-carbonitrile], the IC50 in the series on MOLM-13 cells and in the series with RS4; 11 cells was below 30 nM each time.
For `N#Cc1cnc2sc(CC(F)(F)F)cc2c1N1CC2(CCN(C(=O)[C@H]3N[C@H]4CC[C@@H]3C[C@@H]4CC3CC3)CC2)C1` [Example 25, 4-{7-[(1S,3S,4R,6S)-6-(cyclopropylmethyl)-2-azabicyclo[2.2.2]octane-3-carbonyl]-2,7-diazaspiro[3.5]nonan-2-yl}-2-(2,2,2-trifluoroethyl)thieno[2,3-b]pyridine-5-carbonitrile], inhibition with MOLM-13 cells (Homo sapiens, 168 h) was half-maximal at 40 nM (IC50). Besides, the IC50 in the series with RS4; 11 cells (Homo sapiens, 168 h) was below 30 nM. Further, in the series on RS4; 11 cells, the “cell proliferation inhibition activity” value is reported as “good cell proliferation inhibition activity” and the “cell proliferation inhibitory activity” value is “potent cell proliferation inhibitory activity”.
Turning to `C=C1C[C@@H]2C[C@H]1[C@@H](C(=O)N1CCC3(CC1)CN(c1c(C#N)cnc4sc(CC(F)(F)F)cc14)C3)N2` [Example 26, 4-{7-[(1S,3S,4R)-5-methylidene-2-azabicyclo[2.2.1]heptane-3-carbonyl]-2,7-diazaspiro[3.5]nonan-2-yl}-2-(2,2,2-trifluoroethyl)thieno[2,3-b]pyridine-5-carbonitrile], the IC50 in the series on MOLM-13 cells (Homo sapiens, 168 h) came to 300 nM; in the series with RS4; 11 cells (Homo sapiens, 168 h) it was 300 nM.
On to `C=C1C[C@@H]2CC[C@H]1[C@@H](C(=O)N1CCC3(CC1)CN(c1c(C(F)(F)F)cnc4sc(CC(F)(F)F)cc14)C3)N2` [Example 27, [(1S,3S,4R)-5-Methylidene-2-azabicyclo[2.2.2]octan-3-yl]{2-[2-(2,2,2-trifluoroethyl)-5-(trifluoromethyl)thieno[2,3-b]pyridin-4-yl]-2,7-diazaspiro[3.5]nonan-7-yl}methanone], for which, in series [1], the AUC(0-t) (in general, the area under the concentration-time curve up to a stated or last time point) worked out at 17300 ng·h/mL and the “compound-exposure in plasma (in words)” value was “good compound-exposure in plasma”. Half-maximal inhibition in the series with MOLM-13 cells (Homo sapiens, 168 h) (IC50) was put at 70 nM. The compound also registered an IC50 in the series with RS4; 11 cells (Homo sapiens, 168 h) of 50 nM. In addition, in the series on RS4; 11 cells, the “cell proliferation inhibition activity” value is “good cell proliferation inhibition activity” and the “cell proliferation inhibitory activity” value is reported as “potent cell proliferation inhibitory activity”.
For the compound `C=C1C[C@@H]2CC[C@H]1[C@@H](C(=O)N1CCC3(CC1)CN(c1c(C#N)cnc4sc(CC(F)(F)F)cc14)C3)N2` [Example 28, 4-{7-[(1S,3S,4R)-5-Methylidene-2-azabicyclo[2.2.2]octane-3-carbonyl]-2,7-diazaspiro[3.5]nonan-2-yl}-2-(2,2,2-trifluoroethyl)thieno[2,3-b]pyridine-5-carbonitrile], in series [1], the AUC(0-t) worked out at 11600 ng·h/mL and the “compound-exposure in plasma (in words)” value is reported as “good compound-exposure in plasma”. This compound showed an IC50 in the series with MOLM-13 cells (Homo sapiens, 168 h) of 60 nM. In the series with RS4; 11 cells (Homo sapiens, 168 h), this compound returned an IC50 of 70 nM.
